In patent publication US20240293418A1, “COMBINATION THERAPY FOR TREATING CANCER” (Epizyme, Inc., priority 2016, published 2024):
Like-named read-outs stand apart in the source and are kept apart here. Values belong to the molecule of their own block, whether it stands above or below them.

Tests used:
KMS-28-BM [1] = experiment: 7-day co-treatment combination model (Cell Titer Glo); settings: for IC50: KMS-28BM, 168 h, read-out: 7-day IC50; for combinatorial effect by Loewe volumes / Loewe volume: second agent + tazemetostat; for combinatorial effect by Loewe volumes: 7-day co-treatment, KMS-28-BM t(4;14); for Loewe volume: 7 day co-treatment, KMS-28-BM
Method: (§1) Assay plates were developed for endpoint analysis using Cell Titer Glo to measure ATP content, which was used as an indicator of cell viability. DMSO concentration was kept constant throughout the assay at less than 0.2% v/v.
(§2) All cells were maintained as instructed by the supplier and cultures were maintained at 37° C. in a humidified atmosphere and 5% CO2.
(§3) Loewe volumes greater than 1 denoted synergy and volumes <−1 denoted antagonism.

MM1.S [2] = experiment: as above; settings: Homo sapiens, 168 h, read-out: 7-day IC50
Method: as §1
(§4) Cell lines: The cell lines MI1.S and U266B1 were obtained from American Type Culture Collection (ATCC; Rockville, MD). […] All cells were maintained as instructed by the supplier and cultures were maintained at 37° C. in a humidified atmosphere and 5% CO2.
as §3

RPMI-8226 [3] = experiment: as above
Method: as §1, §4, §3

U266 [4] = experiment: 7 day pretreatment + 4-day co-treatment combination model (Cell Titer Glo); settings: for IC50: Homo sapiens, U-266, 96 h, read-out: 4-day IC50; for combinatorial effect by Loewe volumes: second agent + tazemetostat, 7 day pretreatment + 4-day co-treatment, U266 t(11;14)
From the text: as §1
(§5) Cell lines: The cell lines MI1.S and U266B1 were obtained from American Type Culture Collection (ATCC; Rockville, MD). The cell lines LP-1, L-363 were obtained from Deutsche Sammlung von Mikroorganismen and Zellkulturen (DSMZ; Braunschweig, Germany) and the cell line KMS-28BM was obtained from Japanese Collection of Research Bioresources Cell Bank (JCRB, Osaka Japan). All cells were maintained as instructed by the supplier and cultures were maintained at 37° C. in a humidified atmosphere and 5% CO2.
as §3

LP-1 [5] = experiment: as above; settings: for IC50: Homo sapiens, LP-1, 96 h, read-out: 4-day IC50; for combinatorial effect by Loewe volumes: second agent + tazemetostat, 7 day pretreatment + 4-day co-treatment, LP-1 t(4;14)
From the text: as §1, §5, §3

KMS-28-BM [6] = experiment: as above; settings: for IC50: KMS-28BM, 96 h, read-out: 4-day IC50; for Loewe volume / combinatorial effect by Loewe volumes: second agent + tazemetostat, 7 day pretreatment + 4-day co-treatment; for Loewe volume: KMS-28-BM; for combinatorial effect by Loewe volumes: KMS-28-BM t(4;14)
Method: as §1, §2, §3

L-363 [7] = experiment: as above; settings: for IC50: Homo sapiens, L-363, 96 h, read-out: 4-day IC50; for combinatorial effect by Loewe volumes: second agent + tazemetostat, 7 day pretreatment + 4-day co-treatment, L-363 t(20;22)
From the text: as §1, §5, §3

MM1.S [8] = experiment: as above; settings: Homo sapiens, MM1.S, 96 h, read-out: 4-day IC50
From the text: as §1, §5, §3

Jeko-1 [9] = experiment: mantle cell lymphoma 7 day co-treatment model; type: cell-based
U266 [10] = test system: U266
Method: as §1, §4, §3

L-363 [11] = test system: L-363
Method: as §1, §4, §3

MOLP-8 [12] = experiment: 7-day co-treatment combination model (Cell Titer Glo); settings: second agent + tazemetostat; for combinatorial effect by Loewe volumes: 7-day co-treatment, MOLP-8 t(11;14); for Loewe volume: 7 day co-treatment, MOLP-8
Method: as §1, §2, §3

LP-1 [13] = experiment: as above; settings: for combinatorial effect by Loewe volumes: 7-day co-treatment, LP-1 t(4;14)
Method: as §1, §2, §3

MOLP-8 [14] = experiment: 7 day pretreatment + 4-day co-treatment combination model (Cell Titer Glo); settings: second agent + tazemetostat, MOLP-8 t(11;14)
Method: as §1, §2, §3

Jeko-1 [15] = experiment: mantle cell lymphoma 7 day pretreatment + 4-day co-treatment model (Cell Titer Glo)
From the text: Cells were then co-treated in triplicate with a second compound, 3-fold serially diluted for additional 4 days. After this time, plates were developed for endpoint analysis using Cell Titer Glo to measure ATP content, which is used as an indicator of cell viability.
A Loewe volume greater than 1 denoted synergy. A Loewe volume between −1 and 1 denoted additivity, and a negative Loewe volume of less than −1, denoted antagonism.

[16] = test system: multiple myeloma cell lines and primary patient samples; settings: reported in the literature; cited from earlier work
[17] = test system: Ikaros, Aiolos, IRF4 expression in RPMI-8226 cells; experiment: western blot of Ikaros, Aiolos, IRF4 in RPMI-8226 cells; type: cell-based; settings: 3 days
RPMI-8226 [18] = experiment: apoptosis in RPMI-8226 cells; type: cell-based; settings: tazemetostat 31, 125, 500 nM + pomalidomide 3, 12.5, 50 nM, 3 days
[19] = second agent + tazemetostat, 7 day co-treatment
[20] = second agent + tazemetostat, 7 day pretreatment + 4-day co-treatment, Jeko-1

- IC50 (MM1.S [2]): 1.92 nM
- IC50 (U266 [4]): 2 nM
- IC50 (MM1.S [8]): 1.4 nM
SMILES: CC(C)C[C@H](NC(=O)[C@H](Cc1ccccc1)NC(=O)c1cnccn1)B(O)O [Bortezomib, bortezomib]
- IC50 (KMS-28-BM [1]): 5.22 nM
- vbliss (RPMI-8226 [3]; second agent + tazemetostat, 7 day co-treatment, printed in Loewe volume column): vbliss: 0.24
- IC50 (LP-1 [5]): 3 nM
- IC50 (KMS-28-BM [6]): 3 nM
- IC50 (L-363 [7]): 5 nM

- IC50 (Jeko-1 [9]; Homo sapiens, 168 h, second agent alone, 7 day co-treatment model): 780 nM
- IC50 (U266 [10]): > 10000 nM
- IC50 (L-363 [11]): 3.5 nM
- IC50 (MM1.S [2]): 7 nM
- IC50 (U266 [4]): > 10000 nM
- IC50 (MM1.S [8]): 12 nM
- IC50 (Jeko-1 [15]; Homo sapiens, JeKo-1, 96 h, read-out: Second agent IC50): > 10000 nM
SMILES: C[C@@H]1C[C@H]2[C@@H]3CCC4=CC(=O)C=C[C@]4(C)[C@@]3(F)[C@@H](O)C[C@]2(C)[C@@]1(O)C(=O)CO [Dexamethasone, dexamethasone]
- Best CI (Jeko-1 [9]; [19]): 0.16
- Bliss Volume (Jeko-1 [9]; [19]): 2.96
- HSA Volume (Jeko-1 [9]; [19]): 5.19
- Loewe Volume (Jeko-1 [9]; [19]): 4.32
- Synergy Score (Jeko-1 [9]; [19]): 4.36
- combinatorial effect by Loewe volumes (MOLP-8 [12]): S (Synergy)
- Loewe volume (MOLP-8 [12]): 3.61
- IC50 (LP-1 [13]; Homo sapiens, LP-1, 168 h, read-out: 7-day IC50): 5 nM
- combinatorial effect by Loewe volumes (LP-1 [13]; second agent + tazemetostat): S (Synergy)
- Loewe volume (LP-1 [13]; second agent + tazemetostat, 7 day co-treatment, LP-1): 4.79
- IC50 (KMS-28-BM [1]): 2.7 nM
- combinatorial effect by Loewe volumes (KMS-28-BM [1]): S (Synergy)
- Loewe volume (KMS-28-BM [1]): 4.34
- Loewe volume (RPMI-8226 [3]; [19]): 1.73
- combinatorial effect by Loewe volumes (U266 [4]): A (Additive)
- combinatorial effect by Loewe volumes (MOLP-8 [14]): S (Synergy)
- IC50 (LP-1 [5]): 4 nM
- combinatorial effect by Loewe volumes (LP-1 [5]): S (Synergy)
- IC50 (KMS-28-BM [6]): 6 nM
- Loewe volume (KMS-28-BM [6]): 2.45
- combinatorial effect by Loewe volumes (KMS-28-BM [6]): S (Synergy)
- IC50 (L-363 [7]): 7 nM
- combinatorial effect by Loewe volumes (L-363 [7]): A (Additive)
- Best CI (Jeko-1 [15]; [20]): 0.22
- Bliss Volume (Jeko-1 [15]; [20]): 4.48
- HSA Volume (Jeko-1 [15]; [20]): 7.04
- Loewe Volume (Jeko-1 [15]; [20]): 6.91
- Synergy Score (Jeko-1 [15]; [20]): 6.33

- IC50 (MM1.S [2]): 35.2 nM
- IC50 (U266 [4]): > 10000 nM
- IC50 (MM1.S [8]): 47 nM
SMILES: Nc1cccc2c1C(=O)N(C1CCC(=O)NC1=O)C2=O (stereo not drawn) [Pomalidomide, pomalidomide]
- IRF4 expression, combined treatment ([17]; pomalidomide + tazemetostat vs either alone): enhances repression of IRF4
- Ikaros and Aiolos levels ([17]; single agent 12.5, 50 or 200 nM): results in Ikaros and Aiolos degradation
- apoptosis (RPMI-8226 [18]): enhanced apoptosis
- combinatorial effect by Loewe volumes (MOLP-8 [12]): S (Synergy)
- Loewe volume (MOLP-8 [12]): 5.73
- combinatorial effect by Loewe volumes (LP-1 [13]; second agent + tazemetostat): S (Synergy)
- IC50 (KMS-28-BM [1]): 100 nM
- combinatorial effect by Loewe volumes (KMS-28-BM [1]): S (Synergy)
- Loewe volume (KMS-28-BM [1]): 7.65
- curve shift analysis of combination (RPMI-8226 [3]; pomalidomide + tazemetostat, 7-day combination assay (FIG. 8)): synergy
- Loewe volume (RPMI-8226 [3]; [19]): 3.9
- combinatorial effect by Loewe volumes (U266 [4]): S (Synergy)
- combinatorial effect by Loewe volumes (MOLP-8 [14]): S (Synergy)
- IC50 (LP-1 [5]): 106 nM
- combinatorial effect by Loewe volumes (LP-1 [5]): S (Synergy)
- IC50 (KMS-28-BM [6]): 2540 nM
- Loewe volume (KMS-28-BM [6]): 6.37
- combinatorial effect by Loewe volumes (KMS-28-BM [6]): S (Synergy)
- IC50 (L-363 [7]): 69 nM
- combinatorial effect by Loewe volumes (L-363 [7]): S (Synergy)

The remaining lines, values behind:

SMILES: CCCc1cc(C)[nH]c(=O)c1CNC(=O)c1cc(-c2ccnc(N3CCN(C)CC3)c2)cc2c1cnn2C(C)C [GSK343]
- growth of multiple myeloma cell lines and primary patient samples [16]: inhibited

SMILES: Cc1[nH]c2ccccc2c1CCNCc1ccc(/C=C/C(=O)NO)cc1 [Panobinostat, panobinostat]
- combinatorial effect by Loewe volumes (MOLP-8 [12]): S (Synergy)
- Loewe volume (MOLP-8 [12]): 2.14
- combinatorial effect by Loewe volumes (LP-1 [13]; second agent + tazemetostat): S (Synergy)
- IC50 (KMS-28-BM [1]): 1.26 nM
- combinatorial effect by Loewe volumes (KMS-28-BM [1]): S (Synergy)
- Loewe volume (KMS-28-BM [1]): 5.19
- IC50 (MM1.S [2]): 1.34 nM
- Loewe volume (RPMI-8226 [3]; [19]): 2.24
- IC50 (U266 [4]): 5 nM
- combinatorial effect by Loewe volumes (U266 [4]): S (Synergy)
- combinatorial effect by Loewe volumes (MOLP-8 [14]): A (Additive)
- IC50 (LP-1 [5]): 3 nM
- combinatorial effect by Loewe volumes (LP-1 [5]): S (Synergy)
- IC50 (KMS-28-BM [6]): 2.5 nM
- Loewe volume (KMS-28-BM [6]): 2.03
- combinatorial effect by Loewe volumes (KMS-28-BM [6]): S (Synergy)
- IC50 (L-363 [7]): 3 nM
- combinatorial effect by Loewe volumes (L-363 [7]): S (Synergy)
- IC50 (MM1.S [8]): 5.8 nM

SMILES: CCN(c1cc(-c2ccc(CN3CCOCC3)cc2)cc(C(=O)NCc2c(C)cc(C)[nH]c2=O)c1C)C1CCOCC1 [Tazemetostat, tazemetostat]
- IRF4 expression, single agent ([17]; single agent 31, 125 or 500 nM): reduces TRF4 expression
